The source of these data is patent US12528773B2, “Non-lysosomal glucosylceramidase inhibitors and uses thereof” (ALECTOS THERAPEUTICS INC., priority 2020, dated 2026).

SMILES strings stand for the structures. Like-named read-outs stand apart in the source and are kept apart here.

The subject of assay [1] is rat intestinal alpha-glucosidases. Briefly: Inhibition of rat intestinal alpha-glucosidases (rat intestinal lysate, glucose detection). Type of assay: biochemical. The following applies: compound concentration 25 μM, sucrose as substrate. As to the method:
Assay for Determination of Inhibition of Rat Intestinal Alpha-Glucosidases
Various concentrations of test compounds were prepared in DMSO and then diluted into buffer consisting of 100 mM citric acid, 200 mM disodium phosphate, pH 6.0. Rat intestinal acetone powder (Sigma) was dissolved to 12.5 mg/mL in assay buffer and sonicated in an ice bath, centrifuged, and the supernatant was collected, aliquoted and stored at −20° C. until use. On the day of the assay, the rat intestinal lysate was diluted to 6.25 mg/mL (sucrose reactions) and 2.1 mg/ml (maltose reactions) in assay buffer. The final reaction solutions for sucrose contained 2.1 mg/mL rat intestinal lysate, 40 mM sucrose, 50 or 25 μM of test compound, and 3.3% DMSO. The final reaction solution for maltose contained 0.69 mg/mL rat intestinal lysate, 10 mM maltose, 50 or 25 μM of test compound, and 3.3% DMSO. The reaction was initiated by the addition of substrate (sucrose or maltose) and allowed to proceed at 37° C. for 20 min to assess rat intestinal alpha-glycosidase activities. The reaction was stopped by addition of 20 μL of 2 M Tris-HCl, pH 7.0. The glucose produced during the reaction was detected using a commercial Amplex Red glucose detection kit from Thermo Fisher. For a full plate, the Amplex Red detection mixture was prepared by mixing 35 μL glucose oxidase, 35 μL horseradish peroxidase and 35 μL Amplex Red into 3395 μL 1× Amplex Red detection buffer. A total of 30 μL of detection mixture was added to each well. Fluorescence was measured in kinetic mode on a Biotek Synergy H4 plate reader at a wavelength of 573 nm for excitation and 610 nm for emission for 15 min and quantified from the data at 10 min. Incubations without added rat intestinal lysate were used to correct for the background amount of glucose present in the samples. Incubations without added test compound were used to define maximal enzyme activity. Percent inhibition of rat intestinal alpha-glucosidases was determined by dividing the amount of glucose detected in the presence of test compound by the amount of glucose detected in the maximal enzyme activity wells. All conditions were analyzed in triplicate. […] The final reaction solutions were the same as described above for the Amplex Red Detection kit. After a 20 min reaction time at 37° C., 100 μL of hexokinase glucose reagent was added to all test wells except for the no enzyme added control wells and no test compound added wells. The plate was incubated for a further 15 min at room temperature and the absorbance was read at 340 nm on a Biotek Synergy H4 plate reader. The percent inhibition of rat intestinal alpha-glucosidases was determined in a similar manner as described above.

For a further assay, the target named is GBA2 (Homo sapiens (Human), UniProt Q9HCG7). Briefly: Inhibition of GBA2 in cell lysate (4-methylumbelliferone glucopyranoside substrate).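 Note: homogenate of stably transfected HEK293T cells pre-treated with a GCase inhibitor, test compound preincubated 5 min at 37 °C, substrate reaction 20 min at 37 °C.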 Type of assay: biochemical.
GBA2, sequence (Q9HCG7 whole entry): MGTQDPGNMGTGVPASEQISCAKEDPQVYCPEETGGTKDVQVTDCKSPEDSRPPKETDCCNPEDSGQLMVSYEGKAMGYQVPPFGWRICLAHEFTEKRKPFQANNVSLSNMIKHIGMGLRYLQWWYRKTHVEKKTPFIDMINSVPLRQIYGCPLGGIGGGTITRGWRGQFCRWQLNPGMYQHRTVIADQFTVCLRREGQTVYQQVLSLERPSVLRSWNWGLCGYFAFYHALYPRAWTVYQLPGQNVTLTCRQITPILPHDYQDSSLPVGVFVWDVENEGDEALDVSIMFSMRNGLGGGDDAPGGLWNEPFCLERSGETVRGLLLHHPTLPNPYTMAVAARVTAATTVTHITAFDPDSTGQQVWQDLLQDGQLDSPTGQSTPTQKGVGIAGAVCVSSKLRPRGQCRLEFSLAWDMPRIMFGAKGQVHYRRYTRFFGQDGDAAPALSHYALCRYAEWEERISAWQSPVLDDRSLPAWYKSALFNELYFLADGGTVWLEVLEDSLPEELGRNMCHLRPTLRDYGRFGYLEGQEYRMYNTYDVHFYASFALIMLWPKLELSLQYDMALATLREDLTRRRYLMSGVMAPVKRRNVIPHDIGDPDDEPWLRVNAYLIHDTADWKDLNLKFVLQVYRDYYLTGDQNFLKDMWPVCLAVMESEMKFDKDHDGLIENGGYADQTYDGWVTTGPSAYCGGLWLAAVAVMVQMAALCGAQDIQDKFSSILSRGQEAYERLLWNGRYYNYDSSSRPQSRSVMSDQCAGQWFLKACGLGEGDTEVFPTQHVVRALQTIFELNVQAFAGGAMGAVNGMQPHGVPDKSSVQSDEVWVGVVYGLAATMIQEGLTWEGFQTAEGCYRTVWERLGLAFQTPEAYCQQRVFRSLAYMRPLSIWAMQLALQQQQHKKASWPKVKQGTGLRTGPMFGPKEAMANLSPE
Where [2] appears, read: HEK293T-overexpressing GBA2 cellular homogenate, pH 5.5, read-out: GBA2 IC50.

Broadly, the IC50 is the midpoint of a concentration-inhibition curve.

For `OC[C@@H]1[C@@H](O)[C@H](O)[C@@H](O)CN1CCCCCOCC12CC3CC(CC(C3)C1)C2` [AMP-DNM, (2R,3R,4R,5S)-1-(5-((3R,5R,7R)-adamantan-1-ylmethoxy)pentyl)-2-(hydroxymethyl)piperidine-3,4,5-triol, reference compound], in assay [1], the “rat α-glu. (% inhib.)” value is 85%.

As to `O[C@H]1[C@H](O)CN(CCC2CCCCC2)C[C@@H]1O` [Example 4, (3S,4r,5R)-1-(2-cyclohexylethyl)piperidine-3,4,5-triol], the IC50 at GBA2 (setting [2]) is below 100 nM. In addition, in assay [1], the “rat α-glu. (% inhib.)” value is given as 14%.

Turning to `O[C@H]1[C@H](O)CN(CCCC2CCCCC2)C[C@@H]1O` [Example 5, (3S,4r,5R)-1-(3-cyclohexylpropyl)piperidine-3,4,5-triol], the IC50 on GBA2 (setting [2]) is below 100 nM. In addition, in assay [1], the “rat α-glu. (% inhib.)” value was 10%.

As to `O[C@H]1[C@H](O)CN(CCc2cccc(Cl)c2F)C[C@@H]1O` [Example 6, (3S,4r,5R)-1-(3-chloro-2-fluorophenethyl)piperidine-3,4,5-triol], the IC50 at GBA2 (setting [2]) is below 100 nM. The “rat α-glu. (% inhib.)” value in assay [1] is recorded as 3%.

On to `O[C@H]1[C@H](O)CN(CCc2ccc(Cl)c(Cl)c2)C[C@@H]1O` [Example 8, (3S,4r,5R)-1-(3,4-dichlorophenethyl)piperidine-3,4,5-triol], for which, on GBA2 (setting [2]), the half-inhibitory concentration (IC50) was below 100 nM. In addition, the “rat α-glu. (% inhib.)” value in assay [1] is recorded as 0%.

Consider `CC(Cc1cccc(Cl)c1F)N1C[C@@H](O)[C@H](O)[C@@H](O)C1` (stereo partly drawn) [Example 16, (3S,4r,5R)-1-(1-(3-chloro-2-fluorophenyl)propan-2-yl)piperidine-3,4,5-triol], for which the concentration for half-maximal inhibition (IC50) on GBA2 was 100 to 1000 nM. Moreover, the “rat α-glu. (% inhib.)” value in assay [1] is given as 7%.

Consider `CC(CCc1cccc(Cl)c1F)N1C[C@@H](O)[C@H](O)[C@@H](O)C1` (stereo partly drawn) [Example 17, (3S,4r,5R)-1-(4-(3-chloro-2-fluorophenyl)butan-2-yl)piperidine-3,4,5-triol], for which the IC50 at GBA2 (setting [2]) was in the range of 100 to 1000 nM. Also, the “rat α-glu. (% inhib.)” value in assay [1] is on record as 0%.

Turning to `O[C@H]1[C@H](O)CN(C[C@H]2CCN(c3ncccc3C(F)(F)F)C2)C[C@@H]1O` [Example 19, (3S,4R,5R)-1-(((R)-1-(3-(trifluoromethyl)pyridin-2-yl)pyrrolidin-3-yl)methyl)piperidine-3,4,5-triol], the half-inhibitory concentration (IC50) on GBA2 (setting [2]) was below 100 nM. Also, the “rat α-glu. (% inhib.)” value in assay [1] is on record as 6%.

For the compound `O[C@H]1[C@H](O)CN(C[C@H]2CCN(c3nc4ccccc4o3)C2)C[C@@H]1O` [Example 22, (3S,4R,5R)-1-(((R)-1-(benzo[d]oxazol-2-yl)pyrrolidin-3-yl)methyl)piperidine-3,4,5-triol], at GBA2 (setting [2]), the half-maximal inhibitory concentration (IC50) is below 100 nM. Moreover, the “rat α-glu. (% inhib.)” value in assay [1] is listed as 4%.

Take `O[C@H]1[C@H](O)CN(C[C@H]2CCN(c3nc4ccccc4s3)C2)C[C@@H]1O` [Example 23, (3S,4R,5R)-1-(((R)-1-(benzo[d]thiazol-2-yl)pyrrolidin-3-yl)methyl)piperidine-3,4,5-triol]: on GBA2 (setting [2]), the IC50 is below 100 nM. For the same compound, the “rat α-glu. (% inhib.)” value in assay [1] is 5%.

As to `O[C@H]1[C@H](O)CN(C[C@@H]2CCN(c3ncccc3C(F)(F)F)C2)C[C@@H]1O` [Example 24, (3S,4S,5R)-1-(((S)-1-(3-(trifluoromethyl)pyridin-2-yl)pyrrolidin-3-yl)methyl)piperidine-3,4,5-triol], at GBA2 (setting [2]), the half-maximal inhibitory concentration (IC50) is below 100 nM. Also, the “rat α-glu. (% inhib.)” value in assay [1] is on record as 3%.

For the compound `O[C@H]1[C@H](O)CN(C[C@@H]2CCN(c3cnccc3C(F)(F)F)C2)C[C@@H]1O` [Example 25, (3S,4S,5R)-1-(((S)-1-(4-(trifluoromethyl)pyridin-3-yl)pyrrolidin-3-yl)methyl)piperidine-3,4,5-triol], the IC50 on GBA2 (setting [2]) is below 100 nM. The “rat α-glu. (% inhib.)” value in assay [1] was 1%.

Regarding `O[C@H]1[C@H](O)CN(C[C@@H]2CCN(c3cncnc3C(F)(F)F)C2)C[C@@H]1O` [Example 26, (3S,4S,5R)-1-(((S)-1-(4-(trifluoromethyl)pyrimidin-5-yl)pyrrolidin-3-yl)methyl)piperidine-3,4,5-triol], on GBA2 (setting [2]), the IC50 is below 100 nM. Further, the “rat α-glu. (% inhib.)” value in assay [1] was determined as 0%.

Take `O[C@H]1[C@H](O)CN(C[C@@H]2CCN(c3nc(C(F)(F)F)cs3)C2)C[C@@H]1O` [Example 27, (3S,4S,5R)-1-(((S)-1-(4-(trifluoromethyl)thiazol-2-yl)pyrrolidin-3-yl)methyl)piperidine-3,4,5-triol]: the IC50 at GBA2 (setting [2]) was below 100 nM. For the same compound, in assay [1], the “rat α-glu. (% inhib.)” value is 2%.

Consider `O[C@H]1[C@H](O)CN(C[C@@H]2CCN(c3cccc4scnc34)C2)C[C@@H]1O` [Example 28, (3S,4S,5R)-1-(((S)-1-(benzo[d]thiazol-4-yl)pyrrolidin-3-yl)methyl)piperidine-3,4,5-triol], for which the IC50 on GBA2 (setting [2]) was below 100 nM. The “rat α-glu. (% inhib.)” value in assay [1] is 11%.

Consider `CC(C)c1cnc(N2CCC[C@H](CN3C[C@@H](O)[C@H](O)[C@@H](O)C3)C2)s1` [Example 32, (3S,4R,5R)-1-(((R)-1-(5-isopropylthiazol-2-yl)piperidin-3-yl)methyl)piperidine-3,4,5-triol], for which the IC50 on GBA2 (setting [2]) is below 100 nM. In addition, the “rat α-glu. (% inhib.)” value in assay [1] is 2%.

As to `O[C@H]1[C@H](O)CN(C[C@H]2CCCN(c3nc(C(F)(F)F)cs3)C2)C[C@@H]1O` [Example 33, (3S,4R,5R)-1-(((R)-1-(4-(trifluoromethyl)thiazol-2-yl)piperidin-3-yl)methyl)piperidine-3,4,5-triol], the 50% inhibitory concentration (IC50) on GBA2 (setting [2]) is below 100 nM.

`O[C@H]1[C@H](O)CN(C[C@@H]2CCCN(c3cccc(C(F)(F)F)n3)C2)C[C@@H]1O` [Example 37, (3S,4S,5R)-1-(((S)-1-(6-(trifluoromethyl)pyridin-2-yl)piperidin-3-yl)methyl)piperidine-3,4,5-triol]: the half-maximal inhibitory concentration (IC50) on GBA2 (setting [2]) lay within 100 to 1000 nM. In addition, the “rat α-glu. (% inhib.)” value in assay [1] is 0%.

As to `O[C@H]1[C@H](O)CN(C[C@@H]2CCCN(c3nc(C(F)(F)F)cs3)C2)C[C@@H]1O` [Example 39, (3S,4S,5R)-1-(((S)-1-(4-(trifluoromethyl)thiazol-2-yl)piperidin-3-yl)methyl)piperidine-3,4,5-triol], on GBA2 (setting [2]), the IC50 was in the range of 100 to 1000 nM. The “rat α-glu. (% inhib.)” value in assay [1] is reported as 0%.

Turning to `O[C@H]1[C@H](O)CN(CC2Cc3ccccc3C2)C[C@@H]1O` [Example 62, (3S,4r,5R)-1-((2,3-dihydro-1H-inden-2-yl)methyl)piperidine-3,4,5-triol], the IC50 at GBA2 (setting [2]) is below 100 nM. Further, in assay [1], the “rat α-glu. (% inhib.)” value came out at 12%.

For `O[C@H]1[C@H](O)CN(CC2CCN(c3ccccc3)CC2)C[C@@H]1O` [Example 106, (3S,4r,5R)-1-((1-phenylpiperidin-4-yl)methyl)piperidine-3,4,5-triol], on GBA2 (setting [2]), the IC50 was below 100 nM. Besides, the “rat α-glu. (% inhib.)” value in assay [1] is recorded as 9%.

For the compound `O[C@H]1[C@H](O)CN(C[C@H]2CCN(c3cccc(C(F)(F)F)n3)C2)C[C@@H]1O` [Example 142, (3S,4R,5R)-1-(((R)-1-(6-(trifluoromethyl)pyridin-2-yl)pyrrolidin-3-yl)methyl)piperidine-3,4,5-triol], the half-inhibitory concentration (IC50) at GBA2 (setting [2]) was below 100 nM. In addition, the “rat α-glu. (% inhib.)” value in assay [1] is listed as 0%.

In the case of `O[C@H]1[C@H](O)CN(C[C@H]2CCN(c3cncc(C(F)(F)F)c3)C2)C[C@@H]1O` [Example 146, (3S,4R,5R)-1-(((R)-1-(5-(trifluoromethyl)pyridin-3-yl)pyrrolidin-3-yl)methyl)piperidine-3,4,5-triol], the IC50 at GBA2 (setting [2]) is below 100 nM. In addition, in assay [1], the “rat α-glu. (% inhib.)” value came to 0%.

As to `O[C@H]1[C@H](O)CN(C[C@H]2CCN(c3ccc(C(F)(F)F)nc3)C2)C[C@@H]1O` [Example 149, (3S,4R,5R)-1-(((R)-1-(6-(trifluoromethyl)pyridin-3-yl)pyrrolidin-3-yl)methyl)piperidine-3,4,5-triol], on GBA2 (setting [2]), the IC50 is below 100 nM. Moreover, the “rat α-glu. (% inhib.)” value in assay [1] stood at 0%.

Turning to `O[C@H]1[C@H](O)CN(C[C@@H]2CCN(c3ccc(C(F)(F)F)cn3)C2)C[C@@H]1O` [Example 161, (3S,4S,5R)-1-(((S)-1-(5-(trifluoromethyl)pyridin-2-yl)pyrrolidin-3-yl)methyl)piperidine-3,4,5-triol], the concentration for half-maximal inhibition (IC50) on GBA2 (setting [2]) was below 100 nM. Moreover, the “rat α-glu. (% inhib.)” value in assay [1] stood at 0%.

With `O[C@H]1[C@H](O)CN(Cc2ccc(N3CCCC3)cc2)C[C@@H]1O` [Example 203, (3S,4r,5R)-1-(4-(pyrrolidin-1-yl)benzyl)piperidine-3,4,5-triol], on GBA2 (setting [2]), the concentration for half-maximal inhibition (IC50) fell in the range of 100 to 1000 nM.

With `CCCCN1C[C@H](O)[C@@H](O)[C@H](O)[C@H]1CO` [NB-DNJ, (2R,3R,4R,5S)-1-butyl-2-(hydroxymethyl)piperidine-3,4,5-triol, reference compound], the “rat α-glu. (% inhib.)” value in assay [1] is given as 98%.
